Consider two molecules from article PMC10504495 (iScience, 2023).

Series [1] concerns the target T1, SIRT2 (Homo sapiens, UniProt Q8IXJ6).
T1 construct: SIRT2 (50–356 aa); SUMO (pET-28a-sumo vector) (cleaved yes); made in house; host or cells: E. coli BL21-CodonPlus (DE3)-RIL
T1 sequence (Q8IXJ6 50-356): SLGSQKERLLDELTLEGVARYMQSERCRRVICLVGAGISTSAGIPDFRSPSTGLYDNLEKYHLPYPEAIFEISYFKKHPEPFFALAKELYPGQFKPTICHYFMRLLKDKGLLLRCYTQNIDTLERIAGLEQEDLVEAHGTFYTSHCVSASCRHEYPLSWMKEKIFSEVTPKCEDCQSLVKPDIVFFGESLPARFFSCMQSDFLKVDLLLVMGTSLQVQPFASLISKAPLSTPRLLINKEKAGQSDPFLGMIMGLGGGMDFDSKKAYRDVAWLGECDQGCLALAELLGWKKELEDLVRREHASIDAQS
Nature of the series: fluorogenic probe delactylation assay. Conditions: 10 μM probe, 100 μM NAD+, HEPES pH 8.0, 37°C, 2 h. The series is classed as biochemical. The procedure: (§1) To determine the fluorescence change after incubating p-H4K16laNBD with various enzymes (HDAC3, SIRT1-3, SIRT5-7), we incubated 10 μM p-H4K16laNBD with 0.2 μM SIRT1-7 (except SIRT4) in 20 mM HEPES buffer (pH = 8.0) containing 100 μM NAD^+ for 2 h. For positive control, we used 0.1 μM HDAC3. The fluorescence was measured using an excitation wavelength of 480 nm, and the emitted fluorescence signal at 550 nm was measured using a microplate reader (Molecular Devices SpectraMax ID5 Microplate Reader).

Series [2] has as its target T2, SIRT1 (Homo sapiens, UniProt Q96EB6).
T2 construct: the human SIRT1 core region (234–505 aa); SUMO (pET-28a-sumo vector) (cleaved yes); made in house; host or cells: E. coli BL21-CodonPlus (DE3)-RIL
T2 sequence (Q96EB6 234-505): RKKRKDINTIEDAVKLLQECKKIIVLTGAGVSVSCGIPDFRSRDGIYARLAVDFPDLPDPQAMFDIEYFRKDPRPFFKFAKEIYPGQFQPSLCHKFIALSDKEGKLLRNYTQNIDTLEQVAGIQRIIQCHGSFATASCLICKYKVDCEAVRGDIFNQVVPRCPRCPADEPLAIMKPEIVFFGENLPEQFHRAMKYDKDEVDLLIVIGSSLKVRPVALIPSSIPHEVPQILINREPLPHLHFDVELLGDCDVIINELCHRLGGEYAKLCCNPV
Briefly: fluorogenic probe delactylation assay. Conditions: 10 μM probe, 100 μM NAD+, HEPES pH 8.0, 37°C, 2 h. The series is classed as biochemical. Here is the method:
as §1

Series [3] can be described thus: absorption/fluorescence spectra of the probe. In kind it is physicochemical. The note with it: 10 μM probe. The procedure: (§2) To determine the absorption spectra, 10 μM p-H4K16laNBD was incubated with or without 0.2 μM SIRT3 and 100 μM NAD^+ for 2 h in 20 mM HEPES buffer (pH = 8.0). For the fluorescence assay, the fluorescence was detected using an excitation wavelength of 480 nm, and the emitted fluorescence signal was measured over the range of 520–740 nm using a microplate reader (Molecular Devices SpectraMax ID5 Microplate Reader).

Series [4] concerns the target T3, HDAC3 (Homo sapiens, UniProt O15379).
T3 construct: purchased Abcam ab42631
Briefly: fluorogenic probe delactylation assay. In kind it is biochemical. The note with it: 10 μM probe. The procedure:
as §2
(§3) For the HPLC analysis, we incubated 10 μM p-H4K16laNBD with 0.2 μM SIRT3 and 100 μM NAD^+ in 20 mM HEPES buffer (pH = 8.0) for 2 h. We also performed time-dependent fluorescence measurements by incubating 10 μM p-H4K16laNBD with 0.2 μM SIRT3 and 100 μM NAD^+ or 0.1 μM HDAC3 in 20 mM HEPES buffer (pH = 8.0) for different time intervals. The fluorescence was measured using an excitation wavelength of 480 nm, and the emitted fluorescence signal at 550 nm was measured using a microplate reader (Molecular Devices SpectraMax ID5 Microplate Reader).
as §1

In series [5] the target is T4, SIRT3 (Homo sapiens, UniProt Q9NTG7).
T4 construct: SIRT3 (118–399 aa); 6xHis with TEV site (pET-N-6xHis-TEV vector) (N, cleaved yes); made in house; host or cells: E. coli BL21-CodonPlus (DE3)-RIL
T4 sequence (Q9NTG7 118-399): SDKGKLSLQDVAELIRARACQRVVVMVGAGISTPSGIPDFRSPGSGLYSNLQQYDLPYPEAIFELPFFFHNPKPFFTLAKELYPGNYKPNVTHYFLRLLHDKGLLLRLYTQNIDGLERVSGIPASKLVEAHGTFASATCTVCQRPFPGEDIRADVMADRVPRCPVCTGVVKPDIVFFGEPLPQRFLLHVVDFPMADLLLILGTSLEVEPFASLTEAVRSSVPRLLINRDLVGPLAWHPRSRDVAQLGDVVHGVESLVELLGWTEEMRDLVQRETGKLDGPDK
Briefly: fluorogenic probe delactylation assay. The series is classed as biochemical. Here is the method:
as §2, §3, §1

In series [6] the test system is SIRT7. Briefly: fluorogenic probe delactylation assay. The series is classed as biochemical, human. The note with it: 10 μM probe, 100 μM NAD+, HEPES pH 8.0, 37°C, 2 h. The procedure: as §1
Series [7] has as its system SIRT5. Briefly: fluorogenic probe delactylation assay. In kind it is biochemical, human. The note with it: 10 μM probe, 100 μM NAD+, HEPES pH 8.0, 37°C, 2 h. Here is the method:
as §1

The subject of series [8] is SIRT6. Briefly: fluorogenic probe delactylation assay. The series is classed as biochemical, human. The note with it: 10 μM probe, 100 μM NAD+, HEPES pH 8.0, 37°C, 2 h. The procedure: as §1
The test system of series [9] is pan-Kac. The note with it: cells treated with nicotinamide; cited from earlier work. The source says:
(§4) Histone deacetylases (HDACs), including HDACs and Sirtuin family proteins, are well studied PTM erasers that regulate gene transcription. Recently, Moreno-Yruela et al. discovered that class I HDACs (HDAC1-3), especially HDAC3, are effective lactylation erasers.[5] […] The authors also treated cells with HDAC inhibitors (butyrate, trichostatin A, and apicidin) and a Sirtuin pan-inhibitor (nicotinamide) to compare the intracellular delactylation activities between HDACs and Sirtu ...

Series [10] concerns pan-Kla. The note with it: cells treated with nicotinamide; cited from earlier work.
Text: as §4

T3 sequence (O15379 whole entry): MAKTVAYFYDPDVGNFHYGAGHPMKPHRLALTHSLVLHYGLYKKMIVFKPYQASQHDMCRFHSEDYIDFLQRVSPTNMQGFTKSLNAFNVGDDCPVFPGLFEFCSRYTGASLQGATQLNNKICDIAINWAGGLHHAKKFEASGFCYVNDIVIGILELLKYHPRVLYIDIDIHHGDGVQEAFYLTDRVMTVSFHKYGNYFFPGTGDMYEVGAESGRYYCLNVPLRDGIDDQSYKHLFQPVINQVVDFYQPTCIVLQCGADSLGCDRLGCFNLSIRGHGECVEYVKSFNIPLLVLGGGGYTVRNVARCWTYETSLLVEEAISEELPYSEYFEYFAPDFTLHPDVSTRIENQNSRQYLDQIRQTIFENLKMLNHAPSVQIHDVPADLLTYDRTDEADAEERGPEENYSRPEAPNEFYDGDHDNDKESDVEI
T3 sequence (Q9Y618 395-489 partner limits assumed): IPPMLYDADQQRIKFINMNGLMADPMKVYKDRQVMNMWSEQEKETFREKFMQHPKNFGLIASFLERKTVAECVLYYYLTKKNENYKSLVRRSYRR

With “GGAK(lac)RHRPra-NH2 [p-H4K16laNBD, H4K16la based fluorogenic probe with O-NBD (nitrobenzofurazan) group conjugated to the C-terminus]”, the “fluorescence response, SIRT2” value in series [1] was “minimal changes in fluorescence”. In addition, the “fluorescence response, SIRT1” value in series [2] is given as “minimal changes in fluorescence”. The “new absorption peak after enzymatic reaction” value in [3] (0.2 μM SIRT3, 100 μM NAD+, 2 h, HEPES pH 8.0) is reported as 482 nm. In addition, the absorption peak result in [3] (20 mM HEPES pH 8.0, without enzyme) is “around 370 nm”. The “fluorescence emission peak after incubation with SIRT3 and NAD+” value in series [3] (λex 480 nm, 0.2 μM SIRT3, 100 μM NAD+) came out at 550 nm. Besides, in [4] (0.1 μM HDAC3, 20 mM HEPES pH 8.0, λex 480, λem 550 nm), the “first-order rate constant k, HDAC3” value came out at 0.0102 min⁻¹. Further, the “fluorescence response, HDAC3” value in series [4] (0.1 μM HDAC3, HEPES pH 8.0, 37°C, 2 h) is “fluoresced at 550 nm”. Also, in series [5] (10 μM probe, 0.2 μM SIRT3, 100 μM NAD+, 20 mM HEPES pH 8.0, λex 480, λem 550 nm), the “first-order rate constant k, SIRT3” value was found to be 0.0059 min⁻¹. Also, in series [5] (10 μM probe, SIRT3, 100 μM NAD+, HEPES pH 8.0, 37°C, 2 h), the “fluorescence response, SIRT3” value is reported as “fluoresced at 550 nm”. Further, the “fluorescence with sole NAD+ or denatured SIRT3” value in series [5] (control groups) was “will not affect the fluorescence generating”. Also, the “fluorescence response, SIRT7” value in series [6] was “minimal changes in fluorescence”. Moreover, the “fluorescence response, SIRT5” value in [7] is listed as “minimal changes in fluorescence”. Also, the “fluorescence response, SIRT6” value in [8] is “minimal changes in fluorescence”.

Regarding `NC(=O)c1cccnc1` [nicotinamide], in [9], the pan-Kac level change entry was “unchanged”. Moreover, the pan-Kla level change entry in [10] is reported as “unable to induce Sirtuin-regulated pan-Kla increasement”.
